According to BigSolDB 2.1:

## COc1ccc2nc(SCc3ncc(C)c(OC)c3C)[nH]c2c1
In acetone, 280.35 K
  solubility (mole fraction): 0.005
In acetone, 284.35 K
  solubility (mole fraction): 0.0065
In acetone, 288.15 K
  solubility (mole fraction): 0.0083
In acetone, 292.25 K
  solubility (mole fraction): 0.0108
In acetone, 296.65 K
  solubility (mole fraction): 0.014
In acetone, 300.25 K
  solubility (mole fraction): 0.0172
In acetone, 303.15 K
  solubility (mole fraction): 0.0203
In acetone, 307.65 K
  solubility (mole fraction): 0.0263
In acetone, 311.15 K
  solubility (mole fraction): 0.0319
In acetone, 315.15 K
  solubility (mole fraction): 0.039
In acetone, 319.65 K
  solubility (mole fraction): 0.0496
In ethanol, 280.35 K
  solubility (mole fraction): 0.0144
In ethanol, 284.35 K
  solubility (mole fraction): 0.0189
In ethanol, 288.15 K
  solubility (mole fraction): 0.0248
In ethanol, 292.25 K
  solubility (mole fraction): 0.0323
In ethanol, 296.65 K
  solubility (mole fraction): 0.0412
In ethanol, 300.25 K
  solubility (mole fraction): 0.0511
In ethanol, 303.15 K
  solubility (mole fraction): 0.0606
In ethanol, 307.65 K
  solubility (mole fraction): 0.0775
In ethanol, 311.15 K
  solubility (mole fraction): 0.0946
In ethanol, 315.15 K
  solubility (mole fraction): 0.115
In ethanol, 319.65 K
  solubility (mole fraction): 0.141
In ethyl acetate, 280.35 K
  solubility (mole fraction): 0.0033
In ethyl acetate, 284.35 K
  solubility (mole fraction): 0.004
In ethyl acetate, 288.15 K
  solubility (mole fraction): 0.0049
In ethyl acetate, 292.25 K
  solubility (mole fraction): 0.0058
In ethyl acetate, 296.65 K
  solubility (mole fraction): 0.0073
In ethyl acetate, 300.25 K
  solubility (mole fraction): 0.0085
In ethyl acetate, 303.15 K
  solubility (mole fraction): 0.0098
In ethyl acetate, 307.65 K
  solubility (mole fraction): 0.0122
In ethyl acetate, 311.15 K
  solubility (mole fraction): 0.0142
In ethyl acetate, 315.15 K
  solubility (mole fraction): 0.0165
In ethyl acetate, 319.65 K
  solubility (mole fraction): 0.0208
In isopropanol, 280.35 K
  solubility (mole fraction): 0.0032
In isopropanol, 284.35 K
  solubility (mole fraction): 0.0044
In isopropanol, 288.15 K
  solubility (mole fraction): 0.0058
In isopropanol, 292.25 K
  solubility (mole fraction): 0.0079
In isopropanol, 296.65 K
  solubility (mole fraction): 0.0108
In isopropanol, 300.25 K
  solubility (mole fraction): 0.014
In isopropanol, 303.15 K
  solubility (mole fraction): 0.0172
In isopropanol, 307.65 K
  solubility (mole fraction): 0.0234
In isopropanol, 311.15 K
  solubility (mole fraction): 0.0286
In isopropanol, 315.15 K
  solubility (mole fraction): 0.037
In isopropanol, 319.65 K
  solubility (mole fraction): 0.0482
In methanol, 280.35 K
  solubility (mole fraction): 0.0127
In methanol, 284.35 K
  solubility (mole fraction): 0.0178
In methanol, 288.15 K
  solubility (mole fraction): 0.0239
In methanol, 292.25 K
  solubility (mole fraction): 0.0322
In methanol, 296.65 K
  solubility (mole fraction): 0.0442
In methanol, 300.25 K
  solubility (mole fraction): 0.0559
In methanol, 303.15 K
  solubility (mole fraction): 0.0668
In methanol, 307.65 K
  solubility (mole fraction): 0.0887
In methanol, 311.15 K
  solubility (mole fraction): 0.11
In methanol, 315.15 K
  solubility (mole fraction): 0.138
In methanol, 319.65 K
  solubility (mole fraction): 0.172
In n-butanol, 280.35 K
  solubility (mole fraction): 0.0103
In n-butanol, 284.35 K
  solubility (mole fraction): 0.0134
In n-butanol, 288.15 K
  solubility (mole fraction): 0.0171
In n-butanol, 292.25 K
  solubility (mole fraction): 0.0218
In n-butanol, 296.65 K
  solubility (mole fraction): 0.0292
In n-butanol, 300.25 K
  solubility (mole fraction): 0.0356
In n-butanol, 303.15 K
  solubility (mole fraction): 0.0425
In n-butanol, 307.65 K
  solubility (mole fraction): 0.0549
In n-butanol, 311.15 K
  solubility (mole fraction): 0.0661
In n-butanol, 315.15 K
  solubility (mole fraction): 0.0824
In n-butanol, 319.65 K
  solubility (mole fraction): 0.104
In n-propanol, 280.35 K
  solubility (mole fraction): 0.0076
In n-propanol, 284.35 K
  solubility (mole fraction): 0.0101
In n-propanol, 288.15 K
  solubility (mole fraction): 0.0134
In n-propanol, 292.25 K
  solubility (mole fraction): 0.0178
In n-propanol, 296.65 K
  solubility (mole fraction): 0.0234
In n-propanol, 300.25 K
  solubility (mole fraction): 0.0296
In n-propanol, 303.15 K
  solubility (mole fraction): 0.0359
In n-propanol, 307.65 K
  solubility (mole fraction): 0.047
In n-propanol, 311.15 K
  solubility (mole fraction): 0.0567
In n-propanol, 315.15 K
  solubility (mole fraction): 0.0713
In n-propanol, 319.65 K
  solubility (mole fraction): 0.0914
